One data set has as its system COS-1 cells. Put plainly: Gene expression level by luciferase assay, lipid/pDNA complex. The class given is cell-based. To be noted: for Gene expression level: COS-1, DOPE/cationic lipid liposome, 200 ng DNA, 24 hours. As for the experimental part: (§1) Use of a cationic lipid as a reagent for gene introduction was studied. Cationic liposomes consisting of a mixed membrane constituted by DOPE as a membrane-fusogenic lipid and a cationic lipid were prepared. 15 mg of the mixed lipid (the introduction amount of cationic lipid membrane in mixed membrane was adjusted to 20, 30, 40 or 50 mol %) was dispersed in 1.5 mL of the HEPES buffer solution (pH 7.4), and a liposome having the particle size of about 100 nm was prepared using a probe-type ultrasonic apparatus. The particle size was measured by the dynamic light scattering method. In the table, A represents a cationic lipid 2 and a cationic lipid 6; B represents a cationic lipid 5; C represents a cationic lipid 7; and D represents a cationic lipid 8.
In order to evaluate the gene transfer ability of the prepared cationic liposomes, the gene expression level was calculated based on luciferase assay using an luciferase-encoding plasmid vector (phRL-TK) (n=3).
The experimental protocol was as follows. The amount of transfected DNA was set to 200 ng in all the cases. In 100 μL of medium, COS-1 cells (1×10^4 cells/well) were seeded on a 96-well plate, and cultured in a CO2 incubator for 12 hours. A complex of lipid and plasmid DNA (lipid/pDNA complex) was allowed to stand for minutes, and diluted with the medium to be added to the cells. After that, culture in the CO2 incubator was carried out for 24 hours. The medium was removed, and washing with PBS(−) was carried out twice. Then, a dissolution buffer diluted 5-fold with MilliQ water was added to the medium (25 μl/well), and the cells were solubilized. The obtained solution was mildly stirred and allowed to stand at room temperature for minutes. To 20 μL of the cell solution, 100 μL of the coelenterazine solution was added, and the luminescence intensity was measured using a luminometer.

Data set [1] can be described thus: Particle size of liposomes by dynamic light scattering. It is filed as physicochemical. To be noted: DOPE mixed membrane, in nm. As to the method: (§2) The particle size and the ζ potential of the prepared cationic liposomes were measured. In the measurement of the particle size, the particle size in the case of the lipid concentration of 30 μM was measured by the dynamic light scattering method. In the measurement of the ζ potential, a liposome dispersion was diluted with a HEPES buffer solution (pH 7.4), and the ζ potential in the case of 30 μM was measured.
as §1

A further data set in a line: ζ potential of liposomes. It is filed as physicochemical. The settings on record: for ζ potential: DOPE mixed membrane, in mV. As for the experimental part: As evaluation of physical properties, the quantification of lipid was carried out by means of quantification of choline-type phospholipid, and quantification of encapsulated protein was carried out by means of HPLC (220 nm). In addition, the particle size and ζ potential were measured by the dynamic light scattering method (BECKMAN COULTER, N4 PLUS). […]
as §2
Next, the ζ potential of the prepared cationic liposomes was measured. A to D in the table was the same as Table 9.

`CCCCCCCCCCCCCCCCOC(=O)CCC(NC(=O)C(N)CCCCN)C(=O)OCCCCCCCCCCCCCCCC` (stereo not drawn) [Compound 2, Lys-Glu2C16]: in the data set on COS-1 cells, the Gene expression level result is recorded as “the gene expression level was low”.

On to `CCCCCCCCCCCCCCCCOC(=O)CCC(NC(=O)CCCCCNC(=O)C(N)CCCCN)C(=O)OCCCCCCCCCCCCCCCC` (stereo not drawn) [Compound 5, Lys-(CH2)5-Glu2C16], for which the Particle size in data set [1] (cationic lipid 20 mol %) was found to be 99 ± 45; in data set [1] (cationic lipid 30 mol %) it was 95 ± 46; in data set [1] (cationic lipid 40 mol %), 91 ± 43; in data set [1] (cationic lipid 50 mol %), 100 ± 47. For the same compound, the ζ potential in the data set “ζ potential of liposomes” (cationic lipid 20 mol %) amounted to 28 ± 3.4; in the data set “ζ potential of liposomes” (cationic lipid 30 mol %), 37 ± 0.2; in “ζ potential of liposomes” (cationic lipid 40 mol %), 42 ± 3.0; in the data set “ζ potential of liposomes” (cationic lipid 50 mol %), 41 ± 1.3. For the same compound, in the data set with COS-1 cells, the Gene expression level result is “the expression level was lower than that of the spacer-contained lipid 6”.

Turning to Lys-(CH2)3-Glu2C16 [Compound 6], the Gene expression level entry in the data set on COS-1 cells is reported as “a high expression efficiency was obtained”. In the data set with COS-1 cells (DOPE/lipid 6=6/4 (mol ratio), cationic liposome/plasmid DNA 10/1 (w/w)), the “Gene expression efficiency at best conditions” value is on record as “The highest expression efficiency was obtained”.

For the compound Lys-(CH2)7-Glu2C16 [Compound 7], the Particle size turned out to be 88 ± 42 in data set [1] (cationic lipid 20 mol %), 98 ± 37 in data set [1] (cationic lipid 30 mol %), 86 ± 40 in data set [1] (cationic lipid 40 mol %) and 100 ± 48 in data set [1] (cationic lipid 50 mol %). Also, the ζ potential was found to be 34 ± 42 in “ζ potential of liposomes” (cationic lipid 20 mol %), 40 ± 3.3 in the data set “ζ potential of liposomes” (cationic lipid 30 mol %), 49 ± 3.3 in “ζ potential of liposomes” (cationic lipid 40 mol %) and 37 ± 3.1 in “ζ potential of liposomes” (cationic lipid 50 mol %). Besides, the Gene expression level result with COS-1 cells was “the gene expression level was low”.

For the compound Lys-(CH2)11-Glu2C16 [Compound 8], the Particle size in data set [1] (cationic lipid 20 mol %) amounted to 95 ± 36; in data set [1] (cationic lipid 30 mol %), 113 ± 50; in data set [1] (cationic lipid 40 mol %) it was 80 ± 39; in data set [1] (cationic lipid 50 mol %) it was 95 ± 36. In the data set “ζ potential of liposomes” (DOPE mixed membrane liposomes), the “ζ potential, comparison between lipids” value was “slightly lower than that of the lipid 7”. For the same compound, the ζ potential in “ζ potential of liposomes” (cationic lipid 20 mol %) was found to be 30 ± 1.2; in “ζ potential of liposomes” (cationic lipid 30 mol %) it was 37 ± 0.8; in the data set “ζ potential of liposomes” (cationic lipid 40 mol %), 37 ± 3.1; in the data set “ζ potential of liposomes” (cationic lipid 50 mol %), 44 ± 1.6.

The record behind these values is patent publication US8338643B2, “Reagent for introduction of protein or gene” (Waseda University, priority 2006, dated 2012).
